Test: mn = molality of the nth substance listed, in mol/kg
Conditions: Liquid, Constant-volume piezometry

[Br-].[K+] [potassium bromide] + O
Conditions | mass density [kg/m3]
298.15 K, 101 kPa, m1 = 0.2378 | 1017
298.15 K, 101 kPa, m1 = 0.4645 | 1035.5
298.15 K, 101 kPa, m1 = 0.944 | 1073.1
298.15 K, 101 kPa, m1 = 2.231 | 1167.1
298.94 K, 4079 kPa, m1 = 0.944 | 1074.6
298.94 K, 13886 kPa, m1 = 0.944 | 1079.1
298.94 K, 28950 kPa, m1 = 0.944 | 1085.8
303.15 K, 101 kPa, m1 = 0.2378 | 1015.5
303.15 K, 101 kPa, m1 = 0.4645 | 1033.8
303.15 K, 101 kPa, m1 = 0.944 | 1071.4
303.15 K, 101 kPa, m1 = 2.231 | 1164.9
305.49 K, 3020 kPa, m1 = 0.2378 | 1016
305.49 K, 10375 kPa, m1 = 0.2378 | 1019.1
305.49 K, 27594 kPa, m1 = 0.2378 | 1026.4
308.15 K, 101 kPa, m1 = 0.2378 | 1013.7
308.15 K, 101 kPa, m1 = 0.4645 | 1032
308.15 K, 101 kPa, m1 = 0.944 | 1069.3
308.15 K, 101 kPa, m1 = 2.231 | 1162.4
308.32 K, 3256 kPa, m1 = 0.4645 | 1033.3
308.32 K, 10375 kPa, m1 = 0.4645 | 1036.5
308.32 K, 29078 kPa, m1 = 0.4645 | 1044.3
310.59 K, 2118 kPa, m1 = 2.231 | 1162.1
310.59 K, 14710 kPa, m1 = 2.231 | 1167.8
310.59 K, 19825 kPa, m1 = 2.231 | 1170.1
310.59 K, 29828 kPa, m1 = 2.231 | 1174.5
313.15 K, 101 kPa, m1 = 0.2378 | 1011.8
313.15 K, 101 kPa, m1 = 0.4645 | 1030.1
313.15 K, 101 kPa, m1 = 0.944 | 1067.2
313.15 K, 101 kPa, m1 = 2.231 | 1159.9
318.15 K, 101 kPa, m1 = 0.2378 | 1009.8
318.15 K, 101 kPa, m1 = 0.4645 | 1027.9
318.15 K, 101 kPa, m1 = 0.944 | 1065
318.15 K, 101 kPa, m1 = 2.231 | 1157.4
323.15 K, 101 kPa, m1 = 0.2378 | 1007.5
323.15 K, 101 kPa, m1 = 0.4645 | 1025.6
323.15 K, 101 kPa, m1 = 0.944 | 1062.5
323.15 K, 101 kPa, m1 = 2.231 | 1154.8
328.15 K, 101 kPa, m1 = 0.2378 | 1005.1
328.15 K, 101 kPa, m1 = 0.4645 | 1023.2
328.15 K, 101 kPa, m1 = 0.944 | 1060
328.15 K, 101 kPa, m1 = 2.231 | 1152.1
333.15 K, 101 kPa, m1 = 0.2378 | 1002.6
333.15 K, 101 kPa, m1 = 0.4645 | 1020.5
333.15 K, 101 kPa, m1 = 0.944 | 1057.4
333.15 K, 101 kPa, m1 = 2.231 | 1149.3
338.15 K, 101 kPa, m1 = 0.2378 | 999.9
338.15 K, 101 kPa, m1 = 0.4645 | 1017.8
338.15 K, 101 kPa, m1 = 0.944 | 1054.6
338.15 K, 101 kPa, m1 = 2.231 | 1146.4
343.15 K, 101 kPa, m1 = 0.2378 | 997.1
343.15 K, 101 kPa, m1 = 0.4645 | 1014.9
343.15 K, 101 kPa, m1 = 0.944 | 1051.7
343.33 K, 3923 kPa, m1 = 0.4645 | 1016.4
343.33 K, 9552 kPa, m1 = 0.4645 | 1018.7
343.33 K, 16550 kPa, m1 = 0.4645 | 1021.6
343.33 K, 28570 kPa, m1 = 0.4645 | 1026.7
348.15 K, 101 kPa, m1 = 0.2378 | 994.2
348.15 K, 101 kPa, m1 = 0.4645 | 1012
348.15 K, 101 kPa, m1 = 0.944 | 1048.7
349.79 K, 3334 kPa, m1 = 0.2378 | 994.6
349.79 K, 11278 kPa, m1 = 0.2378 | 997.9
349.79 K, 23461 kPa, m1 = 0.2378 | 1003.1
349.79 K, 29380 kPa, m1 = 0.2378 | 1005.5
358.08 K, 3668 kPa, m1 = 0.944 | 1043.1
358.08 K, 10120 kPa, m1 = 0.944 | 1046.1
358.08 K, 29145 kPa, m1 = 0.944 | 1054.5
359.48 K, 3824 kPa, m1 = 2.231 | 1132.6
359.48 K, 10866 kPa, m1 = 2.231 | 1135.7
359.48 K, 18995 kPa, m1 = 2.231 | 1139.3
359.48 K, 25870 kPa, m1 = 2.231 | 1142.3
380.97 K, 3746 kPa, m1 = 0.4645 | 990.6
380.97 K, 9316 kPa, m1 = 0.4645 | 993.2
380.97 K, 21042 kPa, m1 = 0.4645 | 998.6
380.97 K, 29750 kPa, m1 = 0.4645 | 1002.5
393.11 K, 3256 kPa, m1 = 0.2378 | 963.5
393.11 K, 10866 kPa, m1 = 0.2378 | 967.2
393.11 K, 21065 kPa, m1 = 0.2378 | 972
393.11 K, 26860 kPa, m1 = 0.2378 | 974.7
400.81 K, 3099 kPa, m1 = 0.944 | 1010.2
400.81 K, 9061 kPa, m1 = 0.944 | 1013
400.81 K, 18381 kPa, m1 = 0.944 | 1017.7
400.81 K, 25438 kPa, m1 = 0.944 | 1020.8
432.97 K, 4236 kPa, m1 = 2.231 | 1073.5
432.97 K, 11356 kPa, m1 = 2.231 | 1077.7
432.97 K, 16570 kPa, m1 = 2.231 | 1080.7
432.97 K, 22357 kPa, m1 = 2.231 | 1084
434.09 K, 4805 kPa, m1 = 0.2378 | 928.1
434.09 K, 9218 kPa, m1 = 0.2378 | 930.6
434.09 K, 16941 kPa, m1 = 0.2378 | 935
434.09 K, 28064 kPa, m1 = 0.2378 | 941.1
453.99 K, 3825 kPa, m1 = 0.4645 | 925.6
453.99 K, 9140 kPa, m1 = 0.4645 | 928.9
453.99 K, 16241 kPa, m1 = 0.4645 | 933.5
453.99 K, 22957 kPa, m1 = 0.4645 | 937.5
456.48 K, 4158 kPa, m1 = 0.944 | 959.4
456.48 K, 10120 kPa, m1 = 0.944 | 963.3
456.48 K, 17148 kPa, m1 = 0.944 | 967.9
456.48 K, 24027 kPa, m1 = 0.944 | 972.2
475.7 K, 4903 kPa, m1 = 0.2378 | 884.5
475.7 K, 10611 kPa, m1 = 0.2378 | 888.7
475.7 K, 22060 kPa, m1 = 0.2378 | 896.6
475.7 K, 29860 kPa, m1 = 0.2378 | 902
482.36 K, 4413 kPa, m1 = 0.4645 | 893.9
482.36 K, 8571 kPa, m1 = 0.4645 | 897
482.36 K, 15175 kPa, m1 = 0.4645 | 902
482.36 K, 20588 kPa, m1 = 0.4645 | 905.8
483.32 K, 5217 kPa, m1 = 2.231 | 1024.2
483.32 K, 12082 kPa, m1 = 2.231 | 1029.2
483.32 K, 22088 kPa, m1 = 2.231 | 1036.8
483.32 K, 26194 kPa, m1 = 2.231 | 1039.4
493.15 K, 4413 kPa, m1 = 0.944 | 918.4
493.15 K, 11591 kPa, m1 = 0.944 | 923.9
493.15 K, 21454 kPa, m1 = 0.944 | 931.3
493.15 K, 25284 kPa, m1 = 0.944 | 934.3
505.79 K, 5786 kPa, m1 = 2.231 | 999.3
505.79 K, 11846 kPa, m1 = 2.231 | 1004
505.79 K, 16954 kPa, m1 = 2.231 | 1007.9
505.79 K, 23854 kPa, m1 = 2.231 | 1013.5
511.39 K, 6119 kPa, m1 = 0.4645 | 858.4
511.39 K, 10297 kPa, m1 = 0.4645 | 862.3
511.39 K, 16047 kPa, m1 = 0.4645 | 867.8
511.39 K, 24184 kPa, m1 = 0.4645 | 875.1
520.89 K, 7355 kPa, m1 = 0.944 | 884.8
520.89 K, 12082 kPa, m1 = 0.944 | 889.3
520.89 K, 20122 kPa, m1 = 0.944 | 896.9
534.22 K, 8081 kPa, m1 = 0.2378 | 809.6
534.22 K, 11356 kPa, m1 = 0.2378 | 813.5
534.22 K, 23496 kPa, m1 = 0.2378 | 827
540.44 K, 8571 kPa, m1 = 0.4645 | 819.8
540.44 K, 11591 kPa, m1 = 0.4645 | 823.1
540.44 K, 22189 kPa, m1 = 0.4645 | 836.2
551.72 K, 9140 kPa, m1 = 0.944 | 842.2
551.72 K, 14533 kPa, m1 = 0.944 | 848.7
551.72 K, 21645 kPa, m1 = 0.944 | 857.5
555.7 K, 9708 kPa, m1 = 2.231 | 941.3
555.7 K, 13965 kPa, m1 = 2.231 | 946
555.7 K, 19995 kPa, m1 = 2.231 | 952.8
555.7 K, 23967 kPa, m1 = 2.231 | 957
579.16 K, 11670 kPa, m1 = 0.944 | 797.3
579.16 K, 14220 kPa, m1 = 0.944 | 803
579.16 K, 20665 kPa, m1 = 0.944 | 816.1
579.16 K, 23665 kPa, m1 = 0.944 | 822.3
580.61 K, 11023 kPa, m1 = 0.4645 | 754.1
580.61 K, 12494 kPa, m1 = 0.4645 | 757.8
580.61 K, 19782 kPa, m1 = 0.4645 | 773.2
592.65 K, 11234 kPa, m1 = 0.2378 | 698.5
592.65 K, 13731 kPa, m1 = 0.2378 | 706.6
592.65 K, 20610 kPa, m1 = 0.2378 | 725.2
608.09 K, 16573 kPa, m1 = 0.4645 | 703.4
608.09 K, 17652 kPa, m1 = 0.4645 | 707.1
608.09 K, 23146 kPa, m1 = 0.4645 | 725.8
616.41 K, 14847 kPa, m1 = 0.944 | 714.7
616.41 K, 15769 kPa, m1 = 0.944 | 727.1
616.41 K, 19875 kPa, m1 = 0.944 | 753.5
628.63 K, 17475 kPa, m1 = 2.231 | 841.1
628.63 K, 18221 kPa, m1 = 2.231 | 844.9
